Data set [1] concerns the target T1, recombinant human mPGES-1 (Homo sapiens, UniProt O14684).
T1 construct: made in house; host or cells: Rosetta E. coli (microsomal/membrane fraction)
T1 sequence (O14684 1-152): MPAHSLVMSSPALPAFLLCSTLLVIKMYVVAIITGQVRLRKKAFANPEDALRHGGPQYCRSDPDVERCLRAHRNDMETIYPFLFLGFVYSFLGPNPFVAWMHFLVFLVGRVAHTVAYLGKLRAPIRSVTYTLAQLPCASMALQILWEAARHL
In words: mPGES-1 inhibition test (microsomes, PGH2 substrate, HTRF detection of PGE2). Type of data set: biochemical. The following applies: inhibition of mPGES-1 at 10 μM. The gist of the method: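 E. coli microsomal enzyme, 0.1 M KPi pH 7.4 + 2.5 mM GSH; cpd (DMSO) 25 min RT; PGH2 1 min; acidic FeCl2 stop. Dilute 750-fold, HTRF (d2/Eu-cryptate anti-PGE2, overnight 4 °C), 665/620 ratio vs PGE2 standard curve.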
(Time-resolved FRET reads energy transfer from a long-lived donor to a nearby acceptor.)

These results are taken from US8916599B2, “1H-benz imidazole-5-carboxamides as anti-inflammatory agents” (Orexo AB, priority 2008, dated 2014).

What is called inhibition is the share of the control response that was lost under treatment. Usually melting point stands for the temperature of the solid-liquid transition.

Structures are written as SMILES.

With `O=C(Nc1ccc(Br)cc1)c1ccc2[nH]c(Nc3ccccc3OC(F)(F)F)nc2c1` [Example 106, 2-(2-Trifluoromethoxy-phenylamino)-1H-benzimidazole-5-carboxylic acid (4-bromo-phenyl)-amide], the melting point fell in the range of 241 to 243 °C. For the same compound, the inhibition at 10 µM in data set [1] was 82%.

`O=C(Nc1ccccn1)c1ccc2[nH]c(Nc3c(Cl)cccc3Cl)nc2c1` [Example 293, 2-(2,6-Dichloro-phenylamino)-1H-benzimidazole-5-carboxylic acid pyridin-2-ylamide]: the melting point was 245 to 247 °C. In data set [1], the inhibition at 10 µM came to 87%.

The compound `Cn1c(Nc2c(Cl)cccc2Cl)nc2cc(C(=O)Nc3ccc(C#N)cn3)ccc21` [Example 544, N-(5-Cyanopyridin-2-yl)-2-(2,6-dichlorophenylamino)-1-methyl-1H-benzimidazole-5-carboxamide] returned a melting point of 234 to 236 °C. The inhibition at 10 µM in data set [1] is 91%.

For the compound `O=C(NCc1ccccc1C(F)(F)F)c1cc(Br)c2[nH]c(Nc3c(Cl)cccc3Cl)nc2c1` [Example 350, 7-Bromo-2-(2,6-dichloro-phenylamino)-1H-benzimidazole-5-carboxylic acid 2-trifluoromethyl-benzylamide], the melting point fell in the range of 176 to 178 °C. Moreover, the inhibition at 10 µM in data set [1] came to 99%.

With `O=C(Nc1cc(C(F)(F)F)ccn1)c1ccc2[nH]c(Nc3c(Cl)cccc3Cl)nc2c1` [Example 304, 2-(2,6-Dichloro-phenylamino)-1H-benzimidazole-5-carboxylic acid (4-trifluoromethyl-pyridin-2-yl)-amide], the melting point fell in the range of 179 to 182 °C. Also, in data set [1], the inhibition at 10 µM amounted to 98%.

On to `COCCOc1cccc(NC(=O)c2ccc3c(c2)nc(Nc2c(Cl)cccc2Cl)n3C)n1` [Example 302, 2-(2,6-Dichloro-phenylamino)-1-methyl-1H-benzimidazole-5-carboxylic acid [6-(2-methoxy-ethoxy)-pyridin-2-yl]-amide], for which the melting point fell in the range of 185 to 187 °C. Also, the inhibition at 10 µM in data set [1] came out at 86%.

`O=C(Nc1nc(C(F)(F)F)cs1)c1ccc2[nH]c(Nc3c(Cl)cccc3Cl)nc2c1` [Example 319, 2-(2,6-Dichloro-phenylamino)-1H-benzimidazole-5-carboxylic acid (4-trifluoro-methyl-thiazol-2-yl)-amide] yielded a melting point of 301 to 303 °C. Also, the inhibition at 10 µM in data set [1] amounted to 100%.

In turn, `O=C(Nc1ccccc1C(F)(F)F)c1ccc2[nH]c(Nc3c(Cl)cccc3Cl)nc2c1` [Example 113, 2-(2,6-Dichloro-phenylamino)-1H-benzimidazole-5-carboxylic acid (2-trifluoromethyl-phenyl)-amide] gave a melting point of 143 to 145 °C. In addition, the inhibition at 10 µM in data set [1] amounted to 91%.

In turn, `Cc1c(Cl)cccc1NC(=O)c1ccc2[nH]c(Nc3c(Cl)cccc3Cl)nc2c1` [Example 280, 2-(2,6-Dichloro-phenylamino)-1H-benzimidazole-5-carboxylic acid (3-chloro-2-methyl-phenyl)-amide] gave a melting point of 267 to 269 °C. Moreover, the inhibition at 10 µM in data set [1] was 100%.

`Cc1ccnc(NC(=O)c2ccc3c(c2)nc(Nc2c(Cl)cccc2Cl)n3C)c1` [Example 335, 2-(2,6-Dichloro-phenylamino)-1-methyl-1H-benzimidazole-5-carboxylic acid (4-methyl-pyridin-2-yl)-amide] returned a melting point of 157 to 159 °C. Further, the inhibition at 10 µM in data set [1] is 95%.

`Cc1ccc(Cl)cc1NC(=O)c1ccc2[nH]c(Nc3c(Cl)cccc3Cl)nc2c1` [Example 110, 2-(2,6-Dichloro-phenylamino)-1H-benzimidazole-5-carboxylic acid (5-chloro-2-methyl-phenyl)-amide]: the melting point is 178 to 180 °C. For the same compound, the inhibition at 10 µM in data set [1] came out at 96%.
